How the values were obtained:
HDAC = HDAC inhibitory activity assay (FRET); assay type: biochemical; details: for Inhibition rate: test concentration 100 nM, relative to DMSO control; for IC50: HDAC, FRET, read-out: Half-maximal inhibitory concentration (IC50 ± SD)
Description: The HDAC inhibitory activity of the synthesized compounds was determined by fluorescence resonance energy transfer (FRET), and then compared with that of the positive control to screen out compounds with better activity. HDAC was obtained by purification or purchased directly.
The method was as follows.
An enzyme was added to reaction wells, a reaction buffer was added to control wells, a sample dissolved in DMSO was added to the reaction wells, and the wells were incubated using a contactless nanoflow sonic pipetting system (Ech-550; nanoflow). A fluorescent substrate was added to each reaction well and then rotated and shaken. The wells were incubated for 1-2 h at 30° C. under a sealed condition. A TMP26-containing chromogenic agent was added to terminate the reaction and produce fluorescence. The fluorescence intensity was detected using En Vision multi-label microplate detector (Perkin Elmer) (excitation light: 490 nm, emitted light: 520 nm). After the stabilization of color development, the endpoint value was read. The percentage (relative to the DMSO control group) inhibition rate was calculated using the software GraphPad Prism 4.

[1] = system: human non-small cell lung cancer cell line A549; assay: In vitro anti-tumor activity, MTT method; assay type: cell-based; details: 96-hour treatment
Description: (§1) The inhibitory effects of the compounds against human non-small cell lung cancer cell lines A549, NCI-H1650, human small cell lung cancer cell lines H446, human prostate cancer cells DU145, PC-3, LNCAP, human colon cancer cells lines HCT116, human breast cancer cells MDA-MB-231, and MCF7 tumor cell lines were determined using the MTT method.
(§2) The method was as follows. The cells in the exponential growth phase were collected to count living cells. The concentration of the cell suspension was adjusted using the corresponding medium of each group of cells. The cell suspension was added to the 96-well culture plate at 100 μL per cell, and the plate was placed in a 5% CO2 incubator at 37° C. and incubated for 24 h. Each test compound was dissolved in DMSO to prepare a stock solution with a corresponding concentration. Then, each stock solution was diluted 500-fold with the medium to prepare 4 replicate wells. 100 μL of the corresponding 500-fold solution was added to each well per cell line, with the final DMSO concentration of 0.1%. […] The half-maximal (relative to the DMSO control group) inhibition rate was calculated using the software GraphPad Prism 4.

[2] = system: human prostate cancer cells DU145; assay: In vitro anti-tumor activity, MTT method; assay type: cell-based; details: 96-hour treatment
Description: as §1, §2

[3] = system: human breast cancer cells MCF7; assay: In vitro anti-tumor activity, MTT method; assay type: cell-based; details: MCF-7, MTT, 96-hour treatment
Description: as §1, §2

[4] = system: human prostate cancer cells PC-3; assay: In vitro anti-tumor activity, MTT method; assay type: cell-based; details: PC-3, MTT, 96-hour treatment
Description: as §1, §2

Row | IC50 ([1]; Homo sapiens, A549, 96 h) [µM] | IC50 ([2]; Homo sapiens, DU-145, 96 h) [µM] | IC50 ([3]; Homo sapiens, MCF7, 96 h) [µM] | IC50 ([4]; Homo sapiens, 96 h) [µM] | IC50 (HDAC) [µM] | IC50 [1] [µM] | IC50 [2] [µM] | IC50 [3] [µM] | IC50 [4] [µM] | Compound | Inhibition rate (HDAC)
1 | 2.34 ± 0.1 | 0.44 ± 0.08 | 0.9 ± 0.02 | 1.69 ± 0.08 |  |  |  |  |  | O=C(CCCCCCN1C(=O)C/C(=C\c2ccc(Cl)c(Cl)c2)C1=O)NO [Example I-30, (E)-7-(3-(3,4-dichlorobenzal)-2,5-diketopyrrolidinyl)-N-hydroxyheptamide] | 82.1% ± 0.1%
2 | 3.09 ± 0.41 | 2.54 ± 0.41 | 6.97 ± 0.83 | 7.82 ± 0.9 |  |  |  |  |  | O=C(NO)c1ccc(CN2C(=O)C/C(=C\c3ccccc3)C2=O)cc1 [Example I-41, (E)-4-((3-benzal-2,5-diketopyrrolidinyl)methyl)-N-hydroxybenzamide] | 77.1% ± 1.8%
3 | > 10 | 3.88 ± 0.04 | 1.88 ± 0.14 | 1.73 ± 0.2 |  |  |  |  |  | COc1cc(/C=C2\CC(=O)N(CCCCCCC(=O)NO)C2=O)cc(OC)c1O [Example I-36, (E)-7-(3-(4-hydroxy-3,5-dimethoxybenzal)-2,5-diketopyrrolidinyl)-N-hydroxyheptamide] | 74.8% ± 2.8%
4 | 2.2 ± 0.26 | 0.57 ± 0.04 | 0.69 ± 0.09 | 0.89 ± 0.12 |  |  |  |  |  | O=C(CCCCCCN1C(=O)C/C(=C\c2ccc(Cl)cc2)C1=O)NO [Example I-26, (E)-7-(3-(4-chlorobenzal)-2,5-diketopyrrolidinyl)-N-hydroxyheptamide] | 86.6% ± 0.4%
5 | 1.24 ± 0.21 | 0.4 ± 0.04 | 0.88 ± 0.09 | 0.92 ± 0.03 | 0.0185 ± 0.00019 |  |  |  |  | COc1cccc(/C=C2\CC(=O)N(CCCCCCC(=O)NO)C2=O)c1 [Example I-32, (E)-7-(3-(3-methoxybenzal)-2,5-diketopyrrolidinyl)-N-hydroxyheptamide] | 
6 | 3.51 ± 0.15 | 1.49 ± 0.21 | 2.58 ± 0.07 | 4.27 ± 0.25 |  |  |  |  |  | O=C(CCCCCN1C(=O)C/C(=C\c2ccccc2)C1=O)NO [Example I-3] | 
7 | > 20 | > 20 | > 20 | > 20 |  |  |  |  |  | O=C(CCCN1C(=O)C/C(=C\c2ccccc2)C1=O)N[C@H]1CCCC[C@@H]1O [Example I-10, 4-(3-((E)-benzal)-2,5-diketopyrrolidinyl)-N-((1S,2S)-2-hydroxycyclohexyl) butyramide] | 

Further lines, the compound ahead of its results:

Row | Compound | IC50 ([1]; Homo sapiens, A549, 96 h) [µM] | IC50 ([2]; Homo sapiens, DU-145, 96 h) [µM] | IC50 ([3]; Homo sapiens, MCF7, 96 h) [µM] | IC50 ([4]; Homo sapiens, 96 h) [µM] | IC50 (HDAC) [µM] | IC50 [1] [µM] | IC50 [2] [µM] | IC50 [3] [µM] | IC50 [4] [µM] | Inhibition rate (HDAC)
8 | Nc1cc(F)ccc1NC(=O)CCCCN1C(=O)C/C(=C\c2ccccc2)C1=O [Example I-7, (E)-N-(2-amino-4-fluorophenyl)-5-(3-benzal-2,5-diketopyrrolidinyl)pentanamide] | > 20 | > 20 | > 20 | > 20 |  |  |  |  |  | 0%
9 | N#Cc1ccccc1/C=C1\CC(=O)N(CCCCCCC(=O)NO)C1=O [Example I-20, (E)-7-(3-(2-cyanobenzal)-2,5-diketopyrrolidinyl)-N-hydroxyheptamide] | 2.82 ± 0.39 | 0.74 ± 0.1 | 0.82 ± 0.05 | 0.87 ± 0.1 | 0.0401 ± 0.00121 |  |  |  |  | 
10 | COc1ccc(/C=C2\CC(=O)N(CCCCCCC(=O)NO)C2=O)cc1 [Example I-33, (E)-7-(3-(4-methoxybenzal)-2,5-diketopyrrolidinyl)-N-hydroxyheptamide] | 1.52 ± 0.14 | 0.5 ± 0.1 | 1.02 ± 0.11 | 0.89 ± 0.1 | 0.013 ± 2e-05 |  |  |  |  | 
11 | O=C(CCCCCCN1C(=O)C/C(=C\c2ccccn2)C1=O)NO [Example I-21, (E)-7-(3-(2-methylenepyridin)-2,5-diketopyrrolidinyl)-N-hydroxyheptamide] | 2.25 ± 0.25 | 0.67 ± 0.09 | 1.54 ± 0.09 | 0.99 ± 0.04 |  |  |  |  |  | 88.3% ± 1.1%
12 | Nc1cc(F)ccc1NC(=O)CCCCCCN1C(=O)C/C(=C\c2ccccc2)C1=O [Example I-9, (E)-N-(2-amino-4-fluorophenyl)-7-(3-benzal-2,5-diketopyrrolidinyl)heptamide] | > 20 | > 20 | > 20 | > 20 |  |  |  |  |  | 
13 | O=C(CCCCCCN1C(=O)C/C(=C\c2cccc(F)c2)C1=O)NO [Example I-28, (E)-7-(3-(3-fluorobenzal)-2,5-diketopyrrolidinyl)-N-hydroxyheptamide] | 3.02 ± 0.51 | 0.66 ± 0.12 | 0.92 ± 0.05 | 0.89 ± 0.05 |  |  |  |  |  | 85.2% ± 1.6%
14 | O=C(CCCN1C(=O)C/C(=C\c2ccccc2)C1=O)NO [Example I-1, (E)-4-(3-benzal-2,5-dioxopyrrolidinyl)-N-hydroxybutyramide] | > 20 | > 20 | > 20 | > 20 |  |  |  |  |  | 
15 | COc1ccc(Br)cc1/C=C1\CC(=O)N(CCCCCCC(=O)NO)C1=O [Example I-39, (E)-7-(3-(5-bromo-2-methoxybenzal)-2,5-diketopyrrolidinyl)-N-hydroxyheptamide] | 2.21 ± 0.27 | 0.46 ± 0.04 | 0.68 ± 0.09 | 1.13 ± 0.07 |  |  |  |  |  | 88.1% ± 1.1%
16 | O=C(CCCCCCN1C(=O)C/C(=C\c2ccccc2O)C1=O)NO [Example I-37, (E)-7-(3-(2-hydroxybenzal)-2,5-diketopyrrolidinyl)-N-hydroxyheptamide] | 4.34 ± 0.69 | 1.72 ± 0.12 | 0.8 ± 0.15 | 1.93 ± 0.23 |  |  |  |  |  | 90.6% ± 0.9%
17 | O=C(CCCCCCN1C(=O)C/C(=C\c2cccs2)C1=O)NO [Example I-23, (E)-7-(3-(2-methylenethienyl)-2,5-diketopyrrolidinyl)-N-hydroxyheptamide] | 3.44 ± 0.15 | 0.54 ± 0.1 | 0.97 ± 0.05 | 0.91 ± 0.07 |  |  |  |  |  | 84.9% ± 0.5%
18 | COc1cc(/C=C2\CC(=O)N(CCCCCCC(=O)NO)C2=O)cc(OC)c1OC [Example I-35, (E)-7-(3-(3,4,5-trimethoxybenzal)-2,5-diketopyrrolidinyl)-N-hydroxyheptamide] | 3.63 ± 0.65 | 1.03 ± 0.14 | 1.27 ± 0.13 | 1.71 ± 0.17 |  |  |  |  |  | 82.5% ± 3.5%
19 | Nc1cc(F)ccc1NC(=O)CCCN1C(=O)C/C(=C\c2ccccc2)C1=O [Example I-6, (E)-N-(2-amino-4-fluorophenyl)-4-(3-benzal-2,5-diketopyrrolidinyl) butyramide] |  |  |  |  |  | > 20 | > 20 | > 20 | > 20 | 
20 | O=C(CCCCN1C(=O)C/C(=C\c2ccccc2)C1=O)N[C@H]1CCCC[C@@H]1O [Example I-11, 5-(3-((E)-benzal)-2,5-diketopyrrolidinyl)-N-((1S,2S)-2-hydroxycyclohexyl)pentanamide] | > 20 | > 20 | > 20 | > 20 |  |  |  |  |  | 
21 | O=C(CCCCN1C(=O)C/C(=C\c2ccccc2)C1=O)NO [Example I-2] | > 20 | > 20 | > 20 | > 20 |  |  |  |  |  | 
22 | O=C(CCCCCCCN1C(=O)C/C(=C\c2ccccc2)C1=O)NO [Example I-5] | 5.88 ± 0.58 | 1.56 ± 0.18 | 3.89 ± 0.36 | 5.01 ± 0.38 |  |  |  |  |  | 
